According to patent US20100305068A1, “COMPOUNDS AND METHODS FOR MODULATING PROTEIN TRAFFICKING” (priority 2006, published 2010):
Like-named read-outs stand apart in the source and are kept apart here.

System: pdr5 ypt1^ts cells
Assay: microbe, parasite or virus in culture
Assay type: cell-based, yeast
Conditions: for minimal effective concentration: Saccharomyces cerevisiae, read-out: ypt1-ts MRC (minimal rescue concentration); for optical density, ypt1-ts, 0.39: 0.39 μM compound; for optical density, ypt1-ts, 0.39 / optical density, ypt1-ts, 0.78 / optical density, ypt1-ts, 1.56 / optical density, ypt1-ts, 3.13 / optical density, ypt1-ts, 6.25 / optical density, ypt1-ts, 12.5 / optical density, ypt1-ts, 25: background (0 μM) 0.058; for optical density, ypt1-ts, 0.78: 0.78 μM compound; for optical density, ypt1-ts, 1.56: 1.56 μM compound; for optical density, ypt1-ts, 3.13: 3.13 μM compound; for optical density, ypt1-ts, 6.25: 6.25 μM compound; for optical density, ypt1-ts, 12.5: 12.5 μM compound; for optical density, ypt1-ts, 25: 25 μM compound
From the text: The activity of the compounds as modulators of protein trafficking may be measured in the assays described herein that evaluate the ability of a compound to rescue an impairment in protein trafficking. For example, the yeast mutant cell line ypt1^ts can be used to identify compounds that rescue cells from the lethal phenotype of a mutant YPT1 allele (see, e.g., Examples and Schmitt et al. (1988) Cell 53:635-47). The activity may be measured, for example, in a whole yeast cell assay using 384-well screening protocol and an optical density measurement.
The yeast mutant cell line ypt1^ts suppresses, in a temperature dependent fashion, the dominant-lethal phenotype of a mutant YPT1 allele (Schmitt et al. (1988) Cell 53:635-47). ypt1^ts cells grow normally at temperatures up to 30° C., but are growth arrested at 37° C. (Id.).
A library of compounds (“The Spectrum Collection”) obtained from Microsource Discovery Systems, Inc. (Gaylordsville, Conn.) was screened to assess the ability of individual compounds to restore growth of ypt1^ts cells. Screening was carried out using ypt1^ts cells containing a mutation in the pdr5 gene (resulting in inactivation of a membrane efflux pump). The effect of the compounds was measured in pdr5 ypt1^ts cells cultured at 37° C.

[1] = Table 3, 3.13 uM compound, 37° C., background (0 uM) 0.077
[2] = Table 3, 12.5 uM compound, 37° C., background (0 uM) 0.077
[3] = Table 3, 50 uM compound, 37° C., background (0 uM) 0.077
[4] = Table 2, lowest concentration tested giving growth above the 0 μM background, 37° C.

| SMILES | optical density, 3.13 uM [1] | optical density, 12.5 uM [2] | optical density, 50 uM [3] | minimal effective concentration [4] [µM] | optical density, ypt1-ts, 0.39 (Table 2, 37° C.) | optical density, ypt1-ts, 0.78 (Table 2, 37° C.) | optical density, ypt1-ts, 1.56 (Table 2, 37° C.) | optical density, ypt1-ts, 3.13 (Table 2, 37° C.) | optical density, ypt1-ts, 6.25 (Table 2, 37° C.) | optical density, ypt1-ts, 12.5 (Table 2, 37° C.) | optical density, ypt1-ts, 25 (Table 2, 37° C.) | also measured |
| --- | --- | --- | --- | --- | --- | --- | --- | --- | --- | --- | --- | --- |
| CC(=O)O[C@@H]1CC2C(C)(C)[C@H](O)CC[C@]2(C)C2CC[C@@]3(C)[C@H](c4ccoc4)OC(=O)C4OC43[C@@]21C (stereo partly drawn) [3alpha- HYDROXY- DEOXO- DIHYDRO- GEDUNIN] | 0.137 | 0.25 | 0.146 | – | – | – | – | – | – | – | – | – |
| C=C1[C@H]2CC[C@@]3(C)[C@H](c4ccoc4)OC(=O)C[C@]13O[C@H]1C[C@@H](O)C(C)(C)[C@H](CC(=O)OC)[C@]12C [3alpha-HYDROXY-3- DEOXY[…] METHYL ESTER2] | – | – | – | 3.13 | 0.169 | 0.078 | 0.093 | 0.144 | 0.381 | 0.566 | 0.611 | – |
| C=C1C2CC[C@@]3(C)[C@H](c4ccoc4)OC(=O)C[C@]13O[C@H]1C[C@H](OC(C)=O)C(C)(C)[C@H](CC(=O)OC)[C@@]21C [3beta- ACETO[…] ACID, METHYL ESTER] | – | – | – | 1.56 | 0.129 | 0.096 | 0.133 | 0.374 | 0.538 | 0.571 | 0.553 | – |
| O=C(/C=C/c1ccccc1)c1ccc(O)cc1 [4'- HYDROXYCHALCONE] | – | – | – | 12.5 | 0.088 | 0.073 | 0.079 | 0.093 | 0.1 | 0.329 | 0.552 | – |
| COc1ccc(-c2cc(=O)c3ccccc3o2)cc1 [4′-METHOXYFLAVONE] | – | – | – | 1.56 | 0.111 | 0.077 | 0.136 | 0.474 | 0.567 | 0.556 | 0.557 | – |
| COc1ccccc1-c1cc(=O)c2c(OC)cccc2o1 [5,2′- DIMETHOXY- FLAVONE] | 0.088 | 0.256 | 0.383 | – | – | – | – | – | – | – | – | – |
| C=C1CCC2C(CC2(C)C)C(=C)CC/C1=N/O (stereo not drawn) [5- HYDROXYIMINOISOC ARYOPHYLLENE] | – | – | – | 12.5 | 0.096 | 0.077 | 0.087 | 0.108 | 0.117 | 0.131 | 0.153 | – |
| C[C@]12CCC(=O)C[C@@H]1CC[C@@H]1[C@@H]2CC[C@]2(C)C(=O)CC[C@@H]12 [5alpha- ANDROSTAN- 3,17-DIONE] | – | – | – | – | – | – | – | – | – | – | – | optical density, 3.13 uM: 0.11; optical density, 12.5 uM: 0.16; optical density, 50 uM: 0.319 |
| C=C1C([C@@]2(C)[C@@H](C)CC(=O)C(C)(C)[C@@H]2C(OC(C)=O)C(=O)OC)CC[C@@]2(C)[C@H](c3ccoc3)OC(=O)C[C@]12O (stereo partly drawn) [6-ACETOXY- […] METHYL ESTER] | 0.131 | 0.364 | 0.489 | – | – | – | – | – | – | – | – | – |
| C=C1C2CC[C@@]3(C)[C@H](c4ccoc4)OC(=O)C[C@]13O[C@H]1CC(=O)C(C)(C)[C@H](C(O)C(=O)OC)[C@@]21C (stereo partly drawn) [6-HYDROXY- […] METHYL ESTER] | 0.232 | 0.561 | 0.626 | – | – | – | – | – | – | – | – | – |
| COc1ccc2c(=O)cc(-c3ccccc3OC)oc2c1 [7,2′- DIMETHOXY- FLAVONE] | 0.098 | 0.156 | 0.3 | – | – | – | – | – | – | – | – | – |
| COc1ccc(-c2coc3cc(OC)ccc3c2=O)cc1 [7,4′- DIMETH- OXYISO- FLAVONE] | 0.222 | 0.551 | 0.513 | – | – | – | – | – | – | – | – | – |
| CC1(C)C(=O)C=C[C@@]2(C)C1CC(=O)[C@@]1(C)C3=CC(=O)O[C@@H](c4ccoc4)[C@]3(C)CCC12 (stereo partly drawn) [7-DEACETOXY- 7-OXODEOXY- GEDUNIN] | 0.335 | 0.604 | 0.67 | – | – | – | – | – | – | – | – | – |
| CC1(C)C(=O)C=C[C@]2(C)[C@H]3CC[C@@]4(C)[C@H](c5ccoc5)OC(=O)[C@H]5O[C@]54[C@]3(C)C=C[C@@H]12 [7-DESACETOXY-6,7- DEHYDROGEDUNIN] | – | – | – | 12.5 | 0.094 | 0.071 | 0.074 | 0.093 | 0.099 | 0.171 | 0.308 | – |
| COc1ccc(-c2coc3c(OC)c(O)ccc3c2=O)cc1 [7-HYDROXY- 8,4′-DIMETH- OXYISO- FLAVONE] | 0.121 | 0.151 | 0.398 | – | – | – | – | – | – | – | – | – |
| COc1ccccc1-c1cc(=O)c2cccc(OC)c2o1 [8,2′- DIMETHOXY- FLAVONE] | 0.083 | 0.234 | 0.674 | – | – | – | – | – | – | – | – | – |
| COC(=O)C[C@H]1C(C)(C)C2(O)OC34CC2C(=O)[C@]1(C)C3CC[C@]1(C)C4=CC(=O)O[C@H]1c1ccoc1 (stereo partly drawn) [8beta- HYDROXY- CARAPIN, 3,8- HEMIACETAL] | 0.151 | 0.383 | 0.486 | – | – | – | – | – | – | – | – | – |
| Cc1ccc2c(c1)CC[C@H]1CC(=O)CC[C@]21C [13-METHYL- 4,4-BISNOR- 8,11,13- PODO- […]- 3-ONE] | 0.082 | 0.152 | 0.424 | – | – | – | – | – | – | – | – | – |
| COc1cccc2c1CCC1CC(=O)CC[C@]21C (stereo partly drawn) [14-METHOXY-4,4- BISNOR-8,11,13- PODOCARPATRIEN-3- ONE] | – | – | – | 12.5 | 0.088 | 0.074 | 0.075 | 0.088 | 0.096 | 0.191 | 0.48 | – |
| COC(=O)C[C@H]1C(C)(C)C(=O)[C@@H]2CC3=C4CC(OC)O[C@@H](c5ccoc5)[C@]4(C)CCC3[C@@]1(C)C2=O (stereo partly drawn) [16-DEOXO- MEXICANOLIDE 16-METHYL ETHER] | 0.3 | 0.528 | 0.55 | – | – | – | – | – | – | – | – | – |
| CC(C)c1ccc2c(c1)CCC1[C@](C)(CN)CCC[C@]21C.O=S(=O)(O)O (stereo partly drawn) [18-AMINO ABIETA- 8,11,13- TRIENE SULFATE] | 0.055 | 0.06 | 0.378 | – | – | – | – | – | – | – | – | – |
| COc1ccc2cc([C@H](C)C(=O)O)ccc2c1 [(+)NAPROXEN, reference compound] | – | – | – | – | – | – | – | – | – | – | – | minimal effective concentration: 25 µM |
| CC(C)C1=CC2=CC[C@H]3[C@](C)(CO)CCC[C@]3(C)C2CC1 (stereo partly drawn) [ABIETANOL] | 0.102 | 0.274 | 0.29 | – | – | – | – | – | – | – | – | – |
